Like-named read-outs stand apart in the source and are kept apart here.
What was measured:
[1] = tested on: histamine-induced dyspnea; assay: Bronchodilator (in vivo) Guinea Pig Dyspnea; conditions: oral, one hour before histamine challenge; for responders at 100 mg/kg / DYSP survivors: 100 mg/kg
Description: Unanesthetized guinea pigs (250-350 g), fasted overnight were placed in individual closed aerosol chambers which were connected to a Monoghan Ultrasonic nebulizer. The nebulizer can deliver an ultrasonic fog of uniform particles in a range of 1-8 microns. A 0.1% solution of histamine is aerosolized into the chambers causing the guinea pigs to develop dyspnea. The test drug was given orally one hour before the histamine challenge and the onset of dyspnea was recorded. Saline control animals developed dyspnea within 90-120 seconds of aerosol exposure. […] The data was expressed as the number tested over the number survived. The model was sensitive to bronchodilator and H1 antihistamine activity. Further information relating this test can be obtained from the following two publications which are hereby incorporated by reference: Dungan, K. W. and Lish, P. M. J Allergy 32:139-151 (1961). and Lish, P. M., Robbins, S. I. and Petres E. L. J. Pharmacol. Exp. Therap. 153 L 1538 (1966 ).

[2] = tested on: LOX human melanoma cell adhesion to human fibronectin; assay: LOX melanoma cell adhesion to fibronectin; format: cell-based; conditions: Homo sapiens, LOX; for inhibition at 10 µM: read-out: % Inhibition at 10 μM; for inhibition at 50 µM: read-out: % Inhibition at 50 μM; for IC50: Table 4, 1 hour adhesion, read-out: LOX FN IC50
Description: (§1) Adhesion assays were run essentially as described previously (Pai et al., J. Biomed. Res. 2: 53, 1992). 96-well plates were coated with human fibronectin (140 ng/well), human vitronectin (75 ng/well), human collagen I (100 ng/well), human collagen IV (100 ng/well), human fibrinogen (1 μg/well), murine laminin (600 ng/well), or polylysine, and incubated overnight in a humidified 37° C. incubator. Excess fibronectin or other substrate was then removed and 0.2 ml of 2 mg/ml bovine serum albumin (BSA)in Dulbecco's phosphate-buffered saline (DPBS) was added to each well, incubated for 2 hours at 37° C., and removed. LOX human melanoma cells, M27 murine lung carcinoma cells or B16F10 mouse melanoma cells were detached from tissue culture flasks with RPMI medium containing 0.2M urea and 10 mM EDTA, and 0.18 ml of cells were added to each well to a final cell concentration of 1×10^5 cells/well. For inhibition studies 20 μl of 10× compound was added to the wells prior to cell addition. Cells were allowed to adhere for 1 hour at 37° C. The wells were then gently washed twice with 0.2 ml DPBS. The fluorescent dye calcein AM (Molecular Probes, Eugene Oreg.) in DPBS (0.1 ml of 1 μM) was added to each well, and the plates were incubated for 1 hour at room temperature. Adherent cells were quantitated by reading the fluorescence on a Cytofluor 2300 fluorescent plate reader (Millipore) at 485 nm excitation and 530 nm emission.
LOX FN-IC50 value for inhibition of adhesion of LOX human melanoma cells to fibronectin coated on a plastic surface.

[3] = tested on: LOX human melanoma cell adhesion to polylysine; assay: LOX melanoma cell adhesion to polylysine; format: cell-based; conditions: read-out: Poly Lys IC50
Description: as §1

[4] = Calcein cytotoxicity assay; format: cell-based; conditions: human, lox melanoma cells; 2 hours, calcein AM assay; read-out: 2 Hr Tox LD50
Description: LOX human melanoma cells were detached from tissue culture flasks with RPMI medium containing 0.2M urea and 10 mM EDTA, and 0.18 ml of cells were added to each well to a final cell concentration of 5×10^4 cells/well. 20 μl of 10× compound was added to the wells prior to cell addition. Cells were incubated with the compound at 37° C. for 1 hour or 5 hour as indicated. Calcein AM in DPBS (0.02 ml of 5 μM) was added to each well, and the plates were incubated for an additional 1 hour at room temperature. Viable cells were quantitated by reading the fluorescence on a Cytofluor 2300 fluorescent plate reader at 485 nm excitation and 530 nm emission.

[5] = Cavia porcellus, 1 h, read-out: DYSP survivors (converted)

Row | Structure (SMILES) | responders at 100 mg/kg [1, 5] [%] | inhibition at 10 µM [2] [%] | inhibition at 50 µM [2] [%] | inhibition at 10 µM ([2]; 1 h) [%] | IC50 [3] [µM] | DYSP survivors [1] | IC50 [2] [µM] | CC50 at 2 h [4] [µM] | responders at 50 mg/kg [1, 5] [%] | responders at 10 mg/kg ([1]; Cavia porcellus, 1 h, 10 mg/kg, read-out: DYSP survivors (converted)) [%] | responders at 20 mg/kg ([1]; Cavia porcellus, 1 h, 20 mg/kg, read-out: DYSP survivors (converted)) [%]
1 | COc1ccc(C2(O)c3c(Cl)cccc3C3C4CCC(CC32)N4C)cc1 (centres unmarked) [BBB] | 33.3 | -11.8 | 5.6 | – | – | – | – | – | – | – | –
2 | CN1C2CCC1C1=C(C2)C(c2ccccc2)c2cc(O)ccc21 (centres unmarked) [BB] | – | – | 6.5 | -38.2 | – | – | – | – | – | – | –
3 | COc1ccc(C2(O)c3cc(F)ccc3C3C4CCC(CC32)N4C)cc1 (centres unmarked) [CCC] | 66.7 | – | – | – | – | – | – | – | – | – | –
4 | CN1C2CCC1C1C(=C(c3ccc(F)cc3)c3cc(Cl)ccc31)C2 (centres unmarked) [Compound E] | – | 49.5 | 100 | – | 46.2 | 0/3 | 6.2 | 21.8 | – | – | –
5 | CN1C2CCC1C1C(=C(c3cccc(F)c3)c3cc(F)ccc31)C2 (centres unmarked) [Compound G] | – | 38.1 | 101 | – | 63 | 1/3 | 5.3 | 29.5 | – | – | –
6 | CN1C2CCC1C1C(=C(c3cccc(Cl)c3)c3ccccc31)C2 (centres unmarked) [D] | – | 56.5 | 101 | – | 71.9 | 1/3 | 7.4 | 34.6 | – | – | –
7 | CN1C2CCC1C1=C(C2)C(c2cccs2)c2ccccc21 (centres unmarked) [GGG] | – | -27.6 | 64.4 | – | – | – | – | – | – | – | –
8 | COc1ccc(C2c3ccccc3C3C2CC2CCC3N2C)cc1 (centres unmarked) [GG] | – | 7.1 | 39.1 | – | – | 2/3 | – | – | – | – | –
9 | CN1C2CCC1C1c3ccccc3C(O)(c3ccc(Cl)cc3)C1C2 (centres unmarked) [HH] | 33.3 | 2.5 | 36.9 | – | – | – | – | – | – | – | –
10 | CN1C2CCC1C1c3ccc(Cl)cc3C(O)(c3ccc(F)cc3)C1C2 (centres unmarked) [II] | 100 | 5.4 | 34.8 | – | – | – | – | – | – | – | –
11 | CN1C2CCC1C1C(=C(c3ccccc3)c3cc(F)ccc31)C2 (centres unmarked) [I] | – | 35.6 | 100 | – | 22.8 | 1/3 | 7.6 | 55.9 | – | – | –
12 | CSc1ccc(C2(O)c3ccccc3C3C4CCC(CC32)N4C)cc1 (centres unmarked) [KK] | – | 7.2 | 32.8 | – | – | – | – | – | 0 | – | –
13 | CN1C2CCC1C1c3cc(Cl)ccc3C(O)(c3ccc(F)cc3)C1C2 (centres unmarked) [LL] | – | -12.2 | 26.6 | – | – | – | – | – | – | – | –
14 | CN1C2CCC1C1C(=C(c3ccccc3)c3ccc(F)cc31)C2 (centres unmarked) [M] | – | 18.4 | 99.6 | – | 72.7 | 0/3 | 12.5 | 39.8 | – | – | –
15 | CN1C2CCC1C1c3ccccc3C(O)(c3cccc(C(F)(F)F)c3)C1C2 (centres unmarked) [NN] | – | 9.4 | 24.7 | – | – | – | – | – | 0 | – | –
16 | CN1C2CCC1C1C(=C(c3cccc(F)c3)c3ccccc31)C2 (centres unmarked) [O] | – | 5.2 | 97.1 | – | 130 | 0/3 | 11.2 | 72 | – | – | –
17 | CN1C2CCC1C1c3cc(Cl)ccc3C(O)(c3ccccc3)C1C2 (centres unmarked) [VV] | 100 | 0.9 | 15.9 | – | – | – | – | – | – | – | –
18 | COc1ccc(C2(O)c3cc(Cl)ccc3C3C4CCC(CC32)N4C)cc1 (centres unmarked) [XX, 7-Chloro-5-(p-methoxyphenyl)-2-methyl-1,3-ethano-1,2,3,4,4a,9b-hexahydro-5H-indeno[1,2-c]pyridin-5-ol] | 100 | -23.1 | 8.1 | – | – | – | – | – | 100 | 66.7 | 66.7
19 | CN1C2CCC1C1c3ccc(Cl)cc3C(O)(c3ccccc3)C1C2 (centres unmarked) [YY] | 66.7 | -14.6 | 7.4 | – | – | – | – | – | 100 | – | –
20 | COc1ccc(C2(O)c3ccc(Cl)cc3C3C4CCC(CC32)N4C)cc1 (centres unmarked) [ZZ] | 33.3 | -9.7 | 7 | – | – | – | – | – | – | – | –
